Assays:
Amy13K WT = target: T1, Amy13K WT (Agathobacter rectalis, UniProt A0ABF7PGZ5); assay: isothermal titration calorimetry of hydrolysis; type: biochemical; conditions: 37 °C; only kcat/KM printed
T1 sequence (A0ABF7PGZ5 44-1364): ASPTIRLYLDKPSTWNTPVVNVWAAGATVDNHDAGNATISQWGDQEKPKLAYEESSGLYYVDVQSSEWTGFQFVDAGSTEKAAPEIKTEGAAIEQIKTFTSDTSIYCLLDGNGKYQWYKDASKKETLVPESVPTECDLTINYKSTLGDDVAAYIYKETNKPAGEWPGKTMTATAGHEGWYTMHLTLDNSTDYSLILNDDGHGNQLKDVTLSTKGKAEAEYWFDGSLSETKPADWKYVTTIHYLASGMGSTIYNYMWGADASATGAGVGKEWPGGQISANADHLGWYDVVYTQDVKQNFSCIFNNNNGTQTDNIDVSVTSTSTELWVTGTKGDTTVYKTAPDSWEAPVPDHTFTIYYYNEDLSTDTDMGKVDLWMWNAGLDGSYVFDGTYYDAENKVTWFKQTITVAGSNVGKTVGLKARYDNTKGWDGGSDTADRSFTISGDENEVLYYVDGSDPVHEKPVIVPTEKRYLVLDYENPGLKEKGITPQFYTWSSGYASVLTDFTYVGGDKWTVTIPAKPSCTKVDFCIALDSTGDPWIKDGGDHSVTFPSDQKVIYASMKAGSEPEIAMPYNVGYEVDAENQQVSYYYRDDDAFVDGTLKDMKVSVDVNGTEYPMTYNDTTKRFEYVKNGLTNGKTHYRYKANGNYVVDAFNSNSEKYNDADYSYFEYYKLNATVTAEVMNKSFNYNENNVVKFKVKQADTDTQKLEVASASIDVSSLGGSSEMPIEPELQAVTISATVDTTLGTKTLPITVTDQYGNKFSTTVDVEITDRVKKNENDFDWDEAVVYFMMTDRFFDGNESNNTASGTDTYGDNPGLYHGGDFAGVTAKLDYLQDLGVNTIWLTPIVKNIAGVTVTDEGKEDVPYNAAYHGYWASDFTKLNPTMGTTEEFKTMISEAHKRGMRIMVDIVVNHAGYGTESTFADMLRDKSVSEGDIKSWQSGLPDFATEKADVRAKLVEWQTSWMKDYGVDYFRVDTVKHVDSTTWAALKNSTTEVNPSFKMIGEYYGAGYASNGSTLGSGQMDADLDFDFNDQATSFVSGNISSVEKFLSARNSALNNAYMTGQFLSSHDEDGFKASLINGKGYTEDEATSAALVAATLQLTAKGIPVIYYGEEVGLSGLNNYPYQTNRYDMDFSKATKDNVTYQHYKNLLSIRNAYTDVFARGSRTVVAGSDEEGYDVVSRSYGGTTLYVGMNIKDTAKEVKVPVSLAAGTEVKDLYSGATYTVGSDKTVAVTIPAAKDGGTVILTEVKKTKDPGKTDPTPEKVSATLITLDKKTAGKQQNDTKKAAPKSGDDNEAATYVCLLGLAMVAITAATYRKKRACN

Amy13K ΔCBMa-e = target: T2, Amy13K ΔCBMa-e (Agathobacter rectalis, UniProt A0ABF7PGZ5); assay: isothermal titration calorimetry of hydrolysis; type: biochemical; conditions: 37 °C; only kcat/KM printed
T2 sequence (A0ABF7PGZ5 621-1364 limits assumed): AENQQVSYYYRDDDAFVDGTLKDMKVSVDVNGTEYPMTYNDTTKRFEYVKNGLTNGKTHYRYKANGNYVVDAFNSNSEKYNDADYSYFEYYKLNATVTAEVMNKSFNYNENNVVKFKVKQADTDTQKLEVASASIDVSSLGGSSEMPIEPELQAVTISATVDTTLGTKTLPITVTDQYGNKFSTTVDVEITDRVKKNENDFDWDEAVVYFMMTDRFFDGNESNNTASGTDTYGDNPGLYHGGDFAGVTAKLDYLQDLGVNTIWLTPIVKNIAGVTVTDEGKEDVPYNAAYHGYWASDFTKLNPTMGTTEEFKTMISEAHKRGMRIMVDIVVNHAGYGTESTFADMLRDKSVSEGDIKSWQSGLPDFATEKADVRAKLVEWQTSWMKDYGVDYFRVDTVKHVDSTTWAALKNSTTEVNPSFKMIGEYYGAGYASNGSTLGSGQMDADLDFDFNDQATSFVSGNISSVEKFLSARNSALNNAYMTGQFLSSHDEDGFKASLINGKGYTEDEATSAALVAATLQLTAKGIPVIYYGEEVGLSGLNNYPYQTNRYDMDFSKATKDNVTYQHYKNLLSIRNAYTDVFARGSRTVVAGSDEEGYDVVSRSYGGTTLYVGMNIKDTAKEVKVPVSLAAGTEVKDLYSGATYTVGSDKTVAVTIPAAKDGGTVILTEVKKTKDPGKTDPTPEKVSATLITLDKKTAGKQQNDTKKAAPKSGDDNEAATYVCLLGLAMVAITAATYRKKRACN

OC[C@H]1O[C@H](O[C@H]2[C@H](O)[C@@H](O)[C@@H](O[C@H]3[C@H](O)[C@@H](O)[C@@H](O[C@H]4[C@H](O)[C@@H](O)[C@@H](O[C@H]5[C@H](O)[C@@H](O)[C@@H](O[C@H]6[C@H](O)[C@@H](O)[C@@H](O[C@H]7[C@H](O)[C@@H](O)C(O)O[C@@H]7CO)O[C@@H]6CO)O[C@@H]5CO)O[C@@H]4CO)O[C@@H]3CO)O[C@@H]2CO)[C@H](O)[C@@H](O)[C@@H]1O (some centres unmarked) [maltoheptaose]
isothermal titration calorimetry of hydrolysis (Amy13K WT): The catalytic efficiency of the WT and ΔCBMa-e on maltoheptaose are
isothermal titration calorimetry of hydrolysis (Amy13K ΔCBMa-e): The catalytic efficiency of the WT and ΔCBMa-e on maltoheptaose are
